Reference: patent US6925388B1, “Heterocyclic nonnucleoside inhibitors of reverse transcriptase” (Parker Hughes Institute, priority 1998, dated 2005)
Like-named read-outs stand apart in the source and are kept apart here.

Columns and labels:
[1] = molecular target: recombinant HIV-1 reverse transcriptase (rRT) (Human immunodeficiency virus type 1 group M subtype B, UniProt P04585); test: Quan-T-RT cell-free assay of recombinant HIV-1 reverse transcriptase activity; assay type: biochemical
Description: In addition, the activity of the test compounds to inhibit recombinant HIV-1 reverse transcriptase (rRT) activity was determined using the Quan-T-RT assay system (Amersham, Arlington Heights, Ill.), which utilizes the scintillation proximity assay principle. […] Data for both bioassays is reported as IC50 values.

HIV-1 strain HTLVIIIB = test: p24 enzyme immunoassay of HIV replication in HTLVIIIB-infected peripheral blood mononuclear cells; assay type: cell-based
Description: The HIV-1 strain HTLVIIIB (kindly provided by Dr. Neal T. Wetherall, VIROMED Laboratories, Inc.), was propagated in CCRF-CEM cells, and used in in vitro assays of the anti-HIV-1 activity of the synthesized novel derivatives. Cell-free supernatants of HTLVIIIB-infected CCRF-CEM cells were harvested, dispensed into 1 ml aliquots, and frozen at −70° C.
The incubated cells were then exposed to HIV-1 at a multiplicity of infection (MOI) of 0.1 during a one-hour adsorption period at 37° C. in a humidified 5% CO2 atmosphere. […] Aliquots of culture supernatants were removed from the wells on the 7th day after infection for p24 antigen assays. […] Ag.
The applied p24 enzyme immunoassay (EIA) was the unmodified kinetic assay commercially available from Coulter Corporation/Immunotech, Inc. (Westbrooke, Me.). In the assay, a murine monoclonal antibody against HIV core protein is coated onto microwell strips. Antigen (HIV core protein) present in the test culture supernatant samples binds the antibody and the bound antibody-antigen complex is quantitated. Percent viral inhibition was calculated by comparing the p24 values from the test substance-treated infected cells with p24 values from untreated infected cells (i.e., virus controls).

[2] = Microculture Tetrazolium Assay (MTA) of cell viability; assay type: cell-based, human; details: human; for CC50 at 7 days: non-infected PBMNC, Table 4
Description: (§1) Ag. […] In brief, non-infected PBMNC were treated with test compounds or controls for 7 days under identical experimental conditions and 2,3-bis(2-methoxy-4-nitro-5-sulfophenyl)-5-[(phenylamino)-carbonyl]-2H-tetrazolium hydroxide ([…]), was added to quantitative cellular proliferation.

non-infected PBMNC = test: as above; assay type: cell-based, human; details: for IC50: Table 7, concentration decreasing cellular proliferation by 50%
Description: as §1

[3] = Table 4, DABO compounds, purified recombinant HIV RT, read-out: IC50 [rRT]
[4] = Human immunodeficiency virus 1, PBMC, read-out: IC50 [p24]
[5] = Table 7, HIV-infected peripheral blood mononuclear cells, read-out: IC50 [p24]
[6] = Table 6, recombinant HIV reverse transcriptase assay, read-out: IC50 rRT
[7] = Human immunodeficiency virus 1, PBMC, HIV-infected human peripheral blood mononuclear cells, read-out: IC50 for inhibition of HIV replication (p24 production)
[8] = Human immunodeficiency virus 1, PBMC, Table 6, read-out: IC50 p24
[9] = Table 5, HIV-infected PBMNC, read-out: IC50 p24

S=C(NCCc1ccc(Cl)cc1)Nc1ccc(Br)cn1 [II-9, N-[2-(4-chlorophenethyl)]-N′-[2-(5-bromopyridyl)]-thiourea]
melting point: 180 to 183 °C

CSCSc1nc(Cc2ccccc2)c(C)c(=O)[nH]1 [Compound 3a, 5-methyl-2-[(methylthiomethyl)thio]-6-benzyl-pyrimidin-4-1H-one]
IC50 [1, 3]: 18800 nM
IC50 (HIV-1 strain HTLVIIIB; [4]): 4500 nM
CC50 at 7 days [2]: > 100000 nM

CCOCn1c(Cc2ccccc2)c(C(C)C)c(=O)[nH]c1=O [MKC-442, reference compound]
CC50 at 7 days [2]: > 100000 nM

S=C(NCCN1CCOCC1)Nc1ccc(Br)cn1 [III-3, N-[2-(1-morpholinylethyl)]-N′-[2-(5-bromopyridyl)]-thiourea]
IC50 (HIV-1 strain HTLVIIIB; [5]): < 1 nM
IC50 (non-infected PBMNC): > 100000 nM

CSCSc1nc(Cc2ccccc2)c(C(C)C)c(=O)[nH]1 [Compound 3c, 5-isopropyl-2-[(methylthiomethyl)thio]-benzyl-pyrimidin-4-1H-one]
selectivity index (IC50[MTA]/IC50[p24]) (HIV-1 strain HTLVIIIB): > 100,000
fold more active than AZT and MKC-442 (HIV-1 strain HTLVIIIB; HIV replication): more than 4 fold
IC50 (HIV-1 strain HTLVIIIB; [4]): < 1 nM
IC50 (HIV-1 strain HTLVIIIB; Human immunodeficiency virus 1, PBMC, read-out: IC50 for inhibition of HIV replication (p24 production)): < 1 nM
CC50 at 7 days [2]: > 100000 nM
inhibition of cellular proliferation as measured by MTA (non-infected PBMNC; no detectable cytotoxicity): > 100 µM

S=C(NCCc1cccc(Cl)c1)Nc1ccc(Br)cn1 [II-6, N-[2-(3-chlorophenethyl)]-N′-[2-(5-bromopyridyl)]-thiourea]
IC50 [1, 6]: 3100 nM
melting point: 163 to 165 °C

COc1ccc(OC)c(CCNC(=S)Nc2ccc(Br)cn2)c1 [Compound I-4, N-[2-(2,5-dimethoxyphenylethyl)]-N′-[2-(5-bromopyridyl)]-thiourea]
times more potent than trovirdine against recombinant HIV RT [1]: 8
IC50 (HIV-1 strain HTLVIIIB; Human immunodeficiency virus 1, PBMC, 3 of 3 independent experiments for I-4, read-out: IC50 anti-HIV activity (p24)): < 1 nM
IC50 (HIV-1 strain HTLVIIIB; Human immunodeficiency virus 1, PBMC, Table 5, HIV-infected PBMNC, read-out: IC50 p24): < 1 nM
melting point: 133 to 138 °C

COc1cccc(CCNC(=S)Nc2ccc(Br)cn2)c1 [II-4, N-[2-(3-metboxyphenethyl)]-N′-[2-(5-bromopyridyl)]-thiourea]
IC50 [1]: 400 nM
times more potent than trovirdine against recombinant HIV RT [1]: approximately 2
selectivity index (IC50[MTA]/IC50[p24]) (HIV-1 strain HTLVIIIB): > 3×10^4
IC50 (HIV-1 strain HTLVIIIB; [7]): 3 nM
IC50 (HIV-1 strain HTLVIIIB; [8]): 3 nM
melting point: 155 to 156 °C

Fc1ccc(CCNC(=S)Nc2ccc(Br)cn2)cc1 [II-8, N-[2-(4-fluorophenethyl)]-N′-[2-(5-bromopyridyl)]-thiourea]
fold less active than meta and ortho F compounds (IC50[rRT]) [1]: 10 fold
IC50 [1, 6]: 6400 nM
melting point: 177 to 178 °C

S=C(NCCN1CCCCC1)Nc1ccc(Br)cn1 [III-1, N-[2-(1-piperidinylethyl)]-N′-[2-(5-bromopyridyl)]-thiourea]
IC50 (HIV-1 strain HTLVIIIB; [5]): < 1 nM
IC50 (non-infected PBMNC): > 100000 nM

S=C(NCCc1ccccc1Cl)Nc1ccc(Br)cn1 [II-3, N-[2-(2-chlorophenethyl)]-N′-[2-(5-bromopyridyl)]-thiourea]
IC50 [1]: 700 nM
IC50 (HIV-1 strain HTLVIIIB; [7]): < 1 nM
IC50 (HIV-1 strain HTLVIIIB; [8]): < 1 nM
melting point: 137 to 139 °C

Cc1cn([C@H]2C[C@H](N=[N+]=[N-])[C@@H](CO)O2)c(=O)[nH]c1=O [AZT, reference compound]
IC50 [1, 3]: > 100000 nM
IC50 [1, 6]: > 100000 nM
IC50 (HIV-1 strain HTLVIIIB; 3 of 3 independent experiments for I-4, read-out: IC50 anti-HIV activity (p24)): 8 nM
IC50 (HIV-1 strain HTLVIIIB; Table 4, HTLVIIIB-infected peripheral blood mononuclear cells, read-out: IC50 [p24]): 40 nM
IC50 (HIV-1 strain HTLVIIIB; Table 6, read-out: IC50 p24): 4 nM
IC50 (HIV-1 strain HTLVIIIB; [5]): 4 nM
CC50 (non-infected PBMNC; Table 4): 50000 nM
IC50 (non-infected PBMNC): 50000 nM

CSCSc1nc(Cc2cc(C)cc(C)c2)c(C(C)C)c(=O)[nH]1 [Compound 3d, 5-isopropyl-2-[(methylthiomethyl)thio]-6-(3,5-dimethylbenzyl)-pyrimidin-4-1H-one]
IC50 [1, 3]: 4800 nM

S=C(NCCc1ccccn1)Nc1ccc(Br)cn1 [Trovirdine, reference compound]
IC50 (HIV-1 strain HTLVIIIB; [4]): 7 nM
IC50 (HIV-1 strain HTLVIIIB; Human immunodeficiency virus 1, PBMC, read-out: IC50 anti-HIV activity (p24)): 7 nM
IC50 (HIV-1 strain HTLVIIIB; Human immunodeficiency virus 1, PBMC, read-out: IC50 p24): 7 nM
IC50 at 7 days ([2]; Table 7, concentration decreasing cellular proliferation by 50%): > 100000 nM

Fc1cccc(CCNC(=S)Nc2ccc(Br)cn2)c1 [II-5, N-[2-(3-fluorophenethyl)]-N′-[2-(5-bromopyridyl)]-thiourea]
IC50 [1]: 700 nM
IC50 (HIV-1 strain HTLVIIIB; [7]): < 1 nM
IC50 (HIV-1 strain HTLVIIIB; [8]): < 1 nM
melting point: 171 to 172 °C

CCc1c(Cc2ccccc2)nc(SCSC)[nH]c1=O [Compound 3b, 5-ethyl-2-[(methylthiomethyl)thio]-6-benzyl-pyrimidin-4-1H-one]
IC50 [1, 3]: 9700 nM
IC50 (HIV-1 strain HTLVIIIB; [4]): 800 nM
CC50 at 7 days [2]: > 100000 nM

COc1ccccc1CCNC(=S)Nc1ccc(Br)cn1 [II-1, N-[2-(2-methoxyphenethyl)]-N′-[2-(5-bromopyridyl)]-thiourea]
IC50 [1]: 1000 nM
IC50 (HIV-1 strain HTLVIIIB; [8]): 10 nM
melting point: 143 to 145 °C

COc1ccc(CCNC(=S)Nc2ccc(Br)cn2)cc1 [II-7, N-[2-(4-methoxyphenethyl)]-N′-[2-(5-bromopyridyl)]-thiourea]
IC50 (HIV-1 strain HTLVIIIB; [7]): 15 nM
IC50 (HIV-1 strain HTLVIIIB; [8]): 15 nM
melting point: 178 to 179 °C

S=C(NCCc1ccccn1)Nc1ccccn1 [Compound I-1, N-[2-(2-pyridylethyl)]-N′-[2-(pyridyl)]-thiourea]
IC50 (HIV-1 strain HTLVIIIB; [9]): 230 nM

Fc1ccccc1CCNC(=S)Nc1ccc(Br)cn1 [II-2, N-[2-(2-fluorophenethyl)]-N′-[2-(5-bromopyridyl)]-thiourea]
IC50 [1]: 600 nM
IC50 (HIV-1 strain HTLVIIIB; [7]): < 1 nM
IC50 (HIV-1 strain HTLVIIIB; [8]): < 1 nM
melting point: 156 to 157 °C

S=C(NCCN1CCCCC1)Nc1ccc(Br)cn1 [Compound I-3, N-[2-(1-piperidinoethyl)]-N′-[2-(5-bromopyridyl)]-thiourea]
IC50 (HIV-1 strain HTLVIIIB; [9]): < 1 nM

S=C(NCCN1CCNCC1)Nc1ccc(Br)cn1 [III-2, N-[2-(1-piperizinylethyl)]-N′-[2-(5-bromopyridyl)]-thiourea]
IC50 (HIV-1 strain HTLVIIIB; [5]): 2 nM
IC50 (non-infected PBMNC): > 100000 nM
